Assay results as given in patent US20240228647A1, “OFATUMUMAB FOR TREATING MULTIPLE SCLEROSIS IN ASIAN PATIENTS” (Novartis AG, priority 2021, published 2024).

Key:
patients with RMS = type: in vivo, human; details: human, in vivo
Method: Ofatumumab was investigated in 1882 patients with RMS from two identical Phase III randomized, double-blind, double-dummy, active-comparator controlled, parallel-group, multicenter studies of identical design (Study I and Study II). Patients were randomized to receive either ofatumumab, OMB (20 mg s.c injections every 4 weeks, after an initial loading regimen of 3 injections on Day 1, 7, and 14), or teriflunomide, TER (14 mg p.o. once a day) as active comparator. For brevity, the teriflunomide data are not shown hereinafter.
The maximum treatment duration for an individual patient was 30 study months (approximately 2.5 years). The two studies included a total of 71 patients of Asian race (36 patients in ofatumumab and 35 patients in teriflunomide treatment groups). This Example also includes the Asian patients data from oncology studies (Study A and Study B), as supportive data, where required.
For the safety analyses of this report, non-serious treatment emergent adverse events (TEAEs) up to and including safety cut-off (i.e. 100 days after last study drug administration) and serious TEAEs regardless of the safety cutoff were considered (if reported prior to the data cut-off of Studies I and II). Common terminology criteria for adverse events (CTCAE) grading was used to record the severity of each AE. The latest version of CTCAE available at the time of TEAE reporting was used. […] The three most frequently reported AEs by SOC were ‘General disorders and administration site conditions’ ‘Infections and infestations’ and ‘Injury, poisoning and procedural complications’ in the Asian and ROW subgroups by race (Table 7). […] In the Asian subgroup, 1 patient experienced SAEs of urinary tract infections, urosepsis and testicular infarction in the ofatumumab group and 1 patient reported an SAE of nephrolithiasis in the teriflunomide group (Table 8). Due to the small number of Asian patients by race and region, results should be interpreted with caution.
AEs of special interest were summarized by risk name, PT and treatment. Furthermore, the incidence of any AE that fulfilled the search terms as defined in eCRS were summarized by risk name, level, and maximum CTCAE grade. In this section, AESIs are first described for subgroups by race and then by region. […] The definitions of AEs of special interest correspond to the identified or potential risks for ofatumumab and its class of drug as well as those for the comparator (teriflunomide). AESIs, based on the safety profiles of ofatumumab, comparator, and other anti-CD20 mABs are: • Injection-related reactions including injection-systemic reaction and injection-site • reactions • Infections, including opportunistic infections, HBV infection reactivation and PML • Malignant and premalignant disorders • Hepatic Safety • Neutropenia

serum Ig levels = details: cited from earlier work
serum IgG and IgM levels = details: cited from earlier work

C/C(O)=C(\C#N)C(=O)Nc1ccc(C(F)(F)F)cc1 [teriflunomide]
AE by PT: alopecia, % (patients with RMS): 15.3%
AE by PT: alopecia, patients (patients with RMS): 138
AE by PT: nasopharyngitis, % (patients with RMS): 17.2%
AE by PT: nasopharyngitis, patients (patients with RMS): 155
AE by PT: pyrexia, % (patients with RMS): 14.3%
AE by PT: pyrexia, patients (patients with RMS): 5
AE by PT: upper respiratory tract infection, % (patients with RMS): 5.7%
AE by PT: upper respiratory tract infection, patients (patients with RMS): 2
Patients who experienced at least 1 AE, % (patients with RMS): 84.2%
SAE by PT: Appendicitis, % (patients with RMS): 0.2%
SAE by PT: Appendicitis, patients (patients with RMS): 2
Serious TEAE: Infections and infestations, % (patients with RMS): 1.9%

ocrelizumab
Reduction of IgG levels (serum Ig levels; after two years (96 weeks), FIG. 6): approx. 5%
Reduction in serum Ig levels, approximate mean rate per year (serum Ig levels; per year, over 5.5 years): 3-4%

rituximab [RTX]
Decrease of IgM levels in serum per year (serum IgG and IgM levels): 5.0%
